Experimental findings from US20070167400A1, “Chitosan oligosaccharides and uses thereof” (priority 2001, published 2007) are described below.

The subject of experiment [1] is TNF-α production in C57BL/6 mice macrophages. Briefly: TNF-α production in macrophages (ELISA). Conditions: macrophages activated by PEP. It counts as cell-based. How it is done:
LPS and PEP were added as positive controls. The first cytokine studied was tumor necrosis factor (TNF-α) which is the first cytokine produced and induces the production of the other pro-inflammatory cytokines.
A general note: In an ELISA, binding on a coated surface is turned into a signal by an enzyme label.

Experiment [2] concerns IL-10 production in mice macrophages C57BL/6. Nature of the experiment: IL-10 production in macrophages (ELISA). It is filed as cell-based, C57BL/6 mice. How it is done: LPS and PEP were added as positive controls. We then verified the IL-10 production levels, a very powerful anti-inflammatory cytokine. Peritoneal macrophages are normally good producers of IL-10 since a normal intestinal system requires a high immunological tolerance to operate correctly. Non-activated macrophages were incubated with the various products, as well as LPS and PEP as positive controls, during 24 hours.

The subject of experiment [3] is C57BL/6 mice spleen lymphocytes. Nature of the experiment: Stimulation of spleen lymphocytes by supernatants of treated peritoneal macrophages (MTS/PMS). It is filed as cell-based. How it is done: FIG. 1 is a graphic illustrating the levels of stimulation of the C57BL/6 mice spleen lymphocytes incubated in vitro with macrophage supernatants treated with various concentrations of chitosan oligomers and glucosamine in (A) with and without the presence of peptidoglycan (B), as measured by the activity of the mitochondrial dehydrogenase on formazan salts (MTS/PMS) after 72 hrs of incubation (n=3).
The first experiment consisted in verifying if Product W was able to induce an […] effect. With this in mind, various concentrations of Product W (10 to 160 μg/ml) were incubated with peritoneal macrophages during a 24 hour period and the immunostimulating properties of the supernatants were measured on C57BL/6 mice spleen lymphocytes. The metabolic activity of spleen lymphocytes was measured by the level of Formazan salts transformation (mitochondrial dehydrogenase: MTS/PMS). As control, the dimer of glucosamine (product A), the trimer of glucosamine (product B) and a mixture of dimer-trimer in a ratio of 40:60 (mixture AB) was also studied and the results compared with those induced by glucosamine (product D). Positive controls of pro-inflammatory substances were added, such as lipopolysaccharides of E. coli (LPS) and peptidoglycan of S. Aureus (PEP).
In a second experiment, the macrophages were stimulated by peptidoglycan, (that has a stronger activation on the inflammatory response than LPS), and the capacity of products A, B, AB and W to decrease the stimulation of the lymphocytes was evaluated. […] The reduction induced by Product W, though slight, seems stronger than that induced by glucosamine (product D).

Experiment [4] concerns IL-6 production in mice macrophages C57BL/6. Briefly: IL-6 production in macrophages (ELISA). It counts as cell-based, C57BL/6 mice. Conditions: non-activated macrophages. How it is done: FIG. 3 is a graphic illustrating the levels of IL-6 production in mice macrophages C57BL/6 treated in vitro with various concentrations of chitosan oligomers and glucosamine (A) with and without the presence of peptidoglycan (B), as measured by an ELISA test (n=3). […] LPS and PEP were added as positive controls. Non-activated macrophages were treated with products A, B and W and the IL-6 production was compared with the effects of glucosamine (product D). LPS and PEP were added as positive controls.

Experiment [5] relates to IL-1β release by human keratinocytes. Nature of the experiment: IL-1β release by human keratinocytes (ELISA), unstimulated, UVB or PMA stimulated. The following applies: dexamethasone 0.1 μM. It is filed as cell-based. How it is done: • Reference 1: (PGE2 induction): Indomethacin (Sigma 17378), tested at 1 μM (final) • Reference 2: (IL1β induction): Dexamethazone (Sigma D1756), tested at 0.1 μM (final) Treatments and Assays
Other plates were kept in the dark.
After thawing and centrifugation of the medium, the content in PGE2 was measured in ELISA with a R&D Systems kit (DE0100), according to the recommended protocol of the supplier. The IL1β content was measured in ELISA with a Immunotech kit (1042), according to the recommended protocol of the supplier.
The raw data were transformed and treated by the software PRISM® (Graph Pad Software). The intergroup comparisons were realized by analysis of variance (ANOVA), with the multiple comparison test DUNNETT.

Experiment [6] concerns prostaglandin E2 (PGE2) release by human keratinocytes. Briefly: PGE2 release by human keratinocytes (ELISA), unstimulated, UVB or PMA stimulated. It is filed as cell-based. How it is done: The objectives of the present study are to evaluate the anti-inflammatory effects of two chitosan oligosaccharides (product […] and product […]) according to the present invention, and, more particularly on prostaglandin E2 (PGE2) and IL-1β release by human keratinocytes under a UVB irradiation. […] Other plates were kept in the dark. […] After thawing and centrifugation of the medium, the content in PGE2 was measured in ELISA with a R&D Systems kit (DE0100), according to the recommended protocol of the supplier. The IL1β content was measured in ELISA with a Immunotech kit (1042), according to the recommended protocol of the supplier. The raw data were transformed and treated by the software PRISM® (Graph Pad Software). The intergroup comparisons were realized by analysis of variance (ANOVA), with the multiple comparison test […].

[7] abbreviates: supernatants of non-activated macrophages, 10 to 160 μg/ml, 24 hour.
Where [8] appears, read: no stimulation, indomethacin 1 μM.

On to `N[C@H]1C(O)O[C@H](CO)[C@@H](O)[C@@H]1O` (stereo partly drawn) [glucosamine], for which the “effect on TNF-α (in words), FIG. 2B” value in experiment [1] (10 μg/ml) is recorded as “increased the level of TNF-α”; in experiment [1] (highest concentration), “induced a reduction”. The “effect on IL-10 production (in words), FIG. 4B” value in experiment [2] (macrophages activated by PEP) was “no detectable effect”. Further, the “effect on IL-10 production (in words), FIG. 4A” value in experiment [2] (non-activated macrophages, 24 hours) is given as “slightly increased the IL-10 production”. Moreover, the “effect on lymphocyte activity (in words), FIG. 1A” value (shortened to “effect on lymphocyte activity”) in experiment [3] (setting [7]) was “slightly increased the lymphocyte activity”. Besides, the “effect on IL-6 production (in words), FIG. 3A” value (shortened to “effect on IL-6 production”) in experiment [4] is reported as “did not modify this cytokine”.
Consider `C[C@@H]1C[C@H]2[C@@H]3CCC4=CC(=O)C=C[C@]4(C)[C@@]3(F)[C@@H](O)C[C@]2(C)[C@@]1(O)C(=O)CO` [dexamethasone, Dexamethazone], for which the “IL1β” value in experiment [5] (PMA stimulation 1 μg/ml) came to 0.2 pg/mL. Moreover, in experiment [5] (PMA stimulation), the “IL1β % (of control)” value came to 5%. Also, in experiment [5] (no stimulation), the “IL-1β % (of control)” value is on record as 8%.
Take `N[C@H]1[C@H](O[C@H]2[C@H](O)[C@@H](N)[C@H](O[C@H]3[C@H](O)[C@@H](N)C(O)O[C@@H]3CO)O[C@@H]2CO)O[C@H](CO)[C@@H](O)[C@@H]1O` (stereo partly drawn) [Product B]: the “effect on lymphocyte stimulation induced by PEP (in words), FIG. 1B” value in experiment [3] (macrophages stimulated by peptidoglycan (PEP)) is given as “with the weakest concentration tested was able to decrease this stimulation”. Further, the “effect on lymphocyte activity” value in experiment [3] (setting [7]) is reported as “slight stimulation with the smallest doses only”. In addition, the “effect on IL-6 production” value in experiment [4] is “increase”.
With `N[C@H]1[C@H](O[C@H]2[C@H](O)[C@@H](N)C(O)O[C@@H]2CO)O[C@H](CO)[C@@H](O)[C@@H]1O` (stereo partly drawn) [Product A], the “effect on lymphocyte activity” value is reported as “slight increase” in experiment [3] (non-activated macrophages, 80 μg/ml) and “slight decrease” in experiment [3] (non-activated macrophages, 10 μ/ml). Moreover, the “effect on IL-6 production” value in experiment [4] is reported as “slightly decrease”.
As to `COc1ccc2c(c1)c(CC(=O)O)c(C)n2C(=O)c1ccc(Cl)cc1` [Indomethacin], the “effect on PGE2 release induced by PMA (in words)” value in experiment [6] (PMA stimulation) is given as “totally blocked the PGE2 production/release”. In addition, the “PGE2” value stood at 10 pg/mL in experiment [6] (PMA stimulation 1 μg/ml, indomethacin 1 μM); 7.3 pg/mL in experiment [6] (UVB stimulation 250 mJ/cm2, indomethacin 1 μM); 0.9 pg/mL in experiment [6] (setting [8]). Further, the “PGE2 % (of control)” value turned out to be 0% in experiment [6] (PMA stimulation, indomethacin 1 μM); 22% in experiment [6] (UVB stimulation, indomethacin 1 μM); 8% in experiment [6] (setting [8]). Further, the “effect on PGE2 release (in words)” value in experiment [6] (UVB stimulation) is recorded as “significantly reduced the PGE2 release”. For the same compound, in experiment [6] (setting [8]), the “effect on basal PGE2 production/release (in words)” value is “apparently totally blocked the production/release of this basal level”.
